Results published in publication PMC3517478 (BMC Neurology, 2012).
Numbering of substitutions follows the chain as printed.

Tests used:
Assay type in all cases: cell-based
[1] = molecular target: T1, human α1-GlyR (WT) expressed in HEK 293 cells (Homo sapiens, UniProt P23415); test: Whole-cell patch-clamp, positive allosteric modulation of glycine (EC20) induced currents; design: expressed in transfected cells; host or cells: HEK 293 (transient, electroporation; pCIS2 vector; co-transfected EGFP as a separate marker)
T1 sequence (P23415 29-457): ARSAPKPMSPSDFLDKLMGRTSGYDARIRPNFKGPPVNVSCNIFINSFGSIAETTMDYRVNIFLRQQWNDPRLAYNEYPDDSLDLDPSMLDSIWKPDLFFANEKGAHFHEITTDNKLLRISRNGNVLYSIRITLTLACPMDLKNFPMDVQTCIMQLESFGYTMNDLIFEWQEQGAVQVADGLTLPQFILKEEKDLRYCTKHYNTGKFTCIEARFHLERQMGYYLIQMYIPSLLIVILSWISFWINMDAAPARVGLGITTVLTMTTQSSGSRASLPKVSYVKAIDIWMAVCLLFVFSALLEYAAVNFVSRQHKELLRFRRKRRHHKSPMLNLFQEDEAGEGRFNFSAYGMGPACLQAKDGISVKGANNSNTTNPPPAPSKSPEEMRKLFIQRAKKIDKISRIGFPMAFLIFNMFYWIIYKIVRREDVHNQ
Method: (§1) Drug-containing vials were vigorously vortexed for 30min.
(§2) A new cell was used for each protocol and at least four different experiments were performed for each condition. The concentration of the diluent EtOH corresponding to the highest drug concentration used was 17150 μM.
(§3) Currents were filtered at 2 kHz.
Currents were normalized to their own maximum response.

[2] = molecular target: T2, human α1R271K-GlyR expressed in HEK 293 cells (Homo sapiens, UniProt P23415, R299K); test: Whole-cell patch-clamp, direct activation in the absence of glycine; design: expressed in transfected cells; host or cells: HEK 293 (transient, electroporation; pcDNA1amp vector); details: R271K
T2 sequence (P23415 29-457 R299K): T1 sequence (P23415 29-457) with R271K
Method: as §1, §2, §3

[3] = molecular target: T3, human α1R271Q-GlyR expressed in HEK 293 cells (Homo sapiens, UniProt P23415, R299Q); test: as above; design: expressed in transfected cells; host or cells: HEK 293 (transient, electroporation; pcDNA1amp vector); details: R271Q, 0.01-1000 μM
T3 sequence (P23415 29-457 R299Q): T1 sequence (P23415 29-457) with R271Q
Method: as §1, §2, §3

[4] = molecular target: T4, human α1R271L-GlyR expressed in HEK 293 cells (Homo sapiens, UniProt P23415, R299L); test: as above; design: expressed in transfected cells; host or cells: HEK 293 (transient, electroporation; pcDNA1amp vector); details: R271L, 0.01-1000 μM
T4 sequence (P23415 29-457 R299L): T1 sequence (P23415 29-457) with R271L
Method: as §1, §2, §3

Substance: 4-chloro-2,6-dimethylphenol [4-chloropropofol]
- increased potency to positively modulate glycine induced chloride currents in comparison to propofol ([1]; WT glycine receptors, propofol value from ref 21): more than 1000 fold
- positive allosteric modulation nH ± SEM ([1]; WT, EC20 glycine 20 μM): 2.0 ± 2.8
- EC50 ([1]; WT, co-applied with sub-saturating (EC20) glycine 20 μM, read-out: positive allosteric modulation EC50 ± SEM): 0.08 ± 0.02 nM
- positive allosteric modulation, potentiation [% of peak current amplitude] ± SEM ([1]; WT, maximal positive allosteric modulation, EC20 glycine 20 μM): 269 ± 88%
- direct activation nH [2]: 0.41 ± 0.15
- mean maximal activation (direct) [2]: 77.2 ± 4.2%
- EC50 ([2]; 0.01-1000 μM, n = 5): 16.4 ± 22.3 µM
- direct activation [3]: only a marginal direct activation
- direct activation [4]: completely insensitive
